In US20200375987A1, “METALLO-BETA-LACTAMASE INHIBITORS AND METHODS OF USE THEREOF” (priority 2018, published 2020):
pIC50: −log10 of the molar value. Values after ≈ are worked out from the molar mass of the structure shown.

What was measured:
[1] = test system: Pseudomonas aeruginosa MB5890 (oprD+, efflux−); format: cell-based; conditions: MB 5890, OprD+
Text: (§1) The strain background is Pseudomonas aeruginosa PAO1. A wild-type (MB5919) and an isogenic strain in which multiple efflux pumps have been disrupted genetically were used. The MBL IMP-1, obtained from a clinical isolate was introduced into the strain pair by the following process:
(§2) Plasmid DNA (encoding IMP-1) was extracted from CL 5673 (IMP-1, P. aeruginosa clinical strain) by standard techniques. The plasmid DNA was transformed into parental MB5919 (oprD+, efflux+, inducible AmpC) and MB5890 (oprD+, efflux−, inducible AmpC) isogenic strains by electroporation. These transformed strains were plated onto cation-adjusted Muller-Hinton agar plates containing ceftazidime at 32 μg/mL (MB5919) and 16 μg/mL (MB5890) to select for those cells in which the IMP-1-expressing plasmid was introduced successfully, resulting in resistance to ceftazidime.
(§3) Minimum inhibitory concentrations of sentinel antibiotics were performed to quality control the new strains.

[2] = test system: Pseudomonas aeruginosa MB9798 (MB5919 Trans IMP1 plasmid, efflux+); format: cell-based; conditions: MB5919 Trans IMP1 plasmid (MB 9798), OprD+
Text: as §1, §2, §3

[3] = test system: Pseudomonas aeruginosa MB9799 (MB5890 Trans IMP1 plasmid, efflux−); format: cell-based; conditions: MB 5890 Trans IMP1 plasmid (MB 9799), OprD+
Text: as §1, §2, §3

[4] = test system: Pseudomonas aeruginosa PAO1 MB5919 (oprD+, efflux+); format: cell-based
Text: as §1, §2, §3

[5] = test system: Pseudomonas aeruginosa MB9861 (MB5919 Trans pFlp-Vim1 plasmid, efflux+); format: cell-based; conditions: MB5919 Trans pFlp-Vim1 plasmid (MB 9861), OprD+
[6] = test system: Pseudomonas aeruginosa MB9862 (MB5890 trans pFlp-Vim1 plasmid, efflux−); format: cell-based; conditions: MB 5890 trans pFlp-Vim1 plasmid (MB 9862), OprD+
[7] = test system: Pseudomonas aeruginosa MB5919 Trans pFlp-Vim2 plasmid (efflux+); format: cell-based; conditions: MB 5919 Trans pFlp-Vim2 plasmid, OprD+
[8] = test system: Pseudomonas aeruginosa MB5890 Trans pFlp-Vim2 plasmid (efflux−); format: cell-based; conditions: MB 5890 Trans pFlp-Vim2 plasmid, OprD+
[9] = target: NDM-1 (Klebsiella pneumoniae, UniProt C7C422); assay: Enzyme activity: determination of IC50, fluorescence assay with CCF2-FA substrate (NDM-1); format: biochemical; conditions: 1 pM enzyme, 1.25 μM CCF2-FA, 2 hours at 25° C.; read-out: NDM1 IC50
Chain of NDM-1 (C7C422 29-270, looked up, species assumed): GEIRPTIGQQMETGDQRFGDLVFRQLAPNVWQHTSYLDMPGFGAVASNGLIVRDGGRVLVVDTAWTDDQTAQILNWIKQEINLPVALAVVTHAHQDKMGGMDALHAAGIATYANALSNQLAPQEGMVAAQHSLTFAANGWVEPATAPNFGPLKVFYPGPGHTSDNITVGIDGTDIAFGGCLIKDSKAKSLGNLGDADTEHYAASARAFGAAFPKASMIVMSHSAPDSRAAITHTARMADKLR
In short: (§4)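 IC50s come from 4-parameter fits of inhibition versus inhibitor concentration, tested from 20 μM down to 0.00063 μM. Enzyme, CCF2-FA (1.25 μM) and inhibitor react 2 h at 25° C, pH 7, with 10 μM ZnSO4 and 0.005% Tween-20.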

[10] = target: IMP-1 (Serratia marcescens, UniProt P52699); assay: Enzyme activity: determination of IC50, fluorescence assay with CCF2-FA substrate (IMP-1); format: biochemical; conditions: 2 pM enzyme, 1.25 μM CCF2-FA, 2 hours at 25° C.; read-out: IMP1 IC50
Chain of IMP-1 (P52699 19-246, looked up, species assumed): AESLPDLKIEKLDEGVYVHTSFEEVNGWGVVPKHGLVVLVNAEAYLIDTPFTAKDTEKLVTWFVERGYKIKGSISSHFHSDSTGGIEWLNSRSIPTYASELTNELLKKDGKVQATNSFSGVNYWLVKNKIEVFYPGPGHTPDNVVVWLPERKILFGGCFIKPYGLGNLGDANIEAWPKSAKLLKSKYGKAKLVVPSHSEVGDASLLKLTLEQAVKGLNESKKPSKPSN
In short: as §4

[11] = target: VIM-1 (Pseudomonas aeruginosa, UniProt A0A0F7KYQ8); assay: Enzyme activity: determination of IC50, fluorescence assay with CCF2-FA substrate (VIM-1); format: biochemical; conditions: 30 pM enzyme, 1.25 μM CCF2-FA, 2 hours at 25° C.; read-out: VIM1 IC50
In short: as §4

[12] = target: VIM-2 (Escherichia coli, UniProt Q5U7L7); assay: Enzyme activity: determination of IC50 (VIM-2); format: biochemical; conditions: read-out: VIM2 IC50
[13] = test system: Escherichia coli expressing NDM-1 (CLB30016); assay: Antibiotic potentiation activity: synergistic concentration (MITC95) with imipenem; format: cell-based; conditions: imipenem 1 μg/mL; lowest concentration inhibiting 95% of growth; 35° C., 22-24 hours
In short: (§5)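 Clinical MBL-expressing strains diluted into 1.1× CAMHB were incubated with compound plus imipenem at 1 μg/mL for 22–24 h at 35 °C, then absorbance was read. MITC95 is the lowest compound concentration giving 95% growth inhibition in the presence of imipenem.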

[14] = test system: Klebsiella pneumoniae expressing VIM-1 (IHMA599644); assay: as above; format: cell-based; conditions: imipenem 1 μg/mL; lowest concentration inhibiting 95% of growth; 35° C., 22-24 hours
In short: as §5

[15] = test system: Serratia marcescens expressing IMP-1 (CL5741); assay: as above; format: cell-based; conditions: imipenem 1 μg/mL; lowest concentration inhibiting 95% of growth; 35° C., 22-24 hours
In short: as §5

[16] = test system: P. aeruginosa MB9798 (efflux WT, IMP-1); assay: Efflux: concentration of MBL inhibitor restoring susceptibility to imipenem (MITC95), efflux+ strain; format: cell-based, Pseudomonas aeruginosa; conditions: imipenem at 2 μg/mL in the presence of a class A, C, D serine β-lactamase inhibitor closely related to relebactam
In short: (§6)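 Isogenic P. aeruginosa PAO1 strains, efflux+ and efflux−, transformed with IMP-1 plasmid, were tested by microbroth MIC with fixed imipenem, usually at CLSI breakpoint, plus fixed class A/C β-lactamase inhibitor against AmpC. MBL inhibitor was serially titrated; the concentration restoring susceptibility was recorded.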

[17] = test system: P. aeruginosa MB9799 (efflux mutant, IMP-1); assay: Efflux: concentration of MBL inhibitor restoring susceptibility to imipenem (MITC95), efflux− strain; format: cell-based, Pseudomonas aeruginosa; conditions: imipenem at 2 μg/mL in the presence of a class A, C, D serine β-lactamase inhibitor closely related to relebactam
In short: as §6

Compound	MIC [1] [µg/mL]	MIC [2] [µg/mL]	MIC [3] [µg/mL]	MIC [4] [µg/mL]	MIC [5] [µg/mL]	MIC [6] [µg/mL]	MIC [7] [µg/mL]	MIC [8] [µg/mL]	pIC50 [9]	pIC50 [10]	pIC50 [11]	pIC50 [12]	CLB30016 E.coli MITC95 NDM [13] [µM]	IHMA599644 K.pneumoniae MITC95 uM VIM [14] [µM]	CL5741 S.marcescens MITC95 uM IMP [15] [µM]	MB9798 MITC95 P. aeruginosa Efflux WT [16] [µM]	MB9799 MITC95 P. aeruginosa Efflux Mutant [17] [µM]
CC[C@H]1OC(=O)[C@H](C)[C@@H](O[C@H]2C[C@@](C)(OC)[C@@H](O)[C@H](C)O2)[C@H](C)[C@@H](O[C@@H]2O[C@H](C)C[C@H](N(C)C)[C@H]2O)[C@](C)(O)C[C@@H](C)CN(C)[C@H](C)[C@@H](O)[C@]1(C)O [Azithromycin]	1 (≈ 1.34 µM)	2 (≈ 2.67 µM)	2 (≈ 2.67 µM)	16 (≈ 21.4 µM)	32 (≈ 42.7 µM)	1 (≈ 1.34 µM)	32 (≈ 42.7 µM)	1 (≈ 1.34 µM)									
CC(C)(O/N=C(\C(=O)N[C@@H]1C(=O)N2C(C(=O)[O-])=C(C[n+]3ccccc3)CS[C@H]12)c1csc(N)n1)C(=O)O [CAZ, ceftazidime]	0.5 (≈ 0.915 µM)	256 (≈ 468 µM)	256 (≈ 468 µM)	1 (≈ 1.83 µM)	> 256	> 256	128 (≈ 234 µM)	64 (≈ 117 µM)									
NS(=O)(=O)c1c(S(=O)(=O)N[C@@H]2CCNC2)ccc(N2CCCc3ccc(CCO)nc32)c1-c1nnn[nH]1 [Example 35, 4-[7-(2-hydroxyethyl)-3,4-dihydro-1,8-naphthyridin-1(2H)-yl]-N1-[(3R)-pyrrolidin-3-yl]-3-(1H-tetrazol-5-yl)benzene-1,2-disulfonamide]									8.36	8.33	8.24	8.25	0.78	6.25	1.56	50.00	0.78
NC[C@@H](O)CNS(=O)(=O)c1ccc(N2CCc3cccnc32)c(-c2nn[nH]n2)c1S(N)(=O)=O [Example 36, (R)—N1-(3-amino-2-hydroxypropyl)-4-(2,3-dihydro-1H-pyrrolo [2,3-b]pyridin-1-yl)-3-(2H-tetrazol-5-yl)benzene-1,2-disulfonamide]									9.44	8.85	9.57	9.31	1.56	3.13	1.56	12.50	0.78
NC[C@@H](O)CS(=O)(=O)c1ccc(N2CCCn3ccnc32)c(-c2nn[nH]n2)c1S(N)(=O)=O [Example 37, (R)-6-((3-amino-2-hydroxypropyl)sulfonyl)-3-(6,7-dihydroimidazo[1,2-a]pyrimidin-8(5H)-yl)-2-(2H-tetrazol-5-yl)benzenesulfonamide]									8.37	8.25	8.65	8.35	0.20	1.56	0.78	3.13	0.78
NC[C@@H](O)CNS(=O)(=O)c1ccc(N2CCC(CO)n3ccnc32)c(-c2nn[nH]n2)c1S(N)(=O)=O (stereo partly drawn) [Example 38, N1-((R)-3-amino-2-hydroxypropyl)-4-(5-(hydroxymethyl)-6,7-dihydroimidazo[1,2-a]pyrimidin-8(5H)-yl)-3-(2H-tetrazol-5-yl)benzene-1,2-disulfonamide]									9.19	8.38	9.40	8.62	0.20	1.56	0.78	1.56	0.78
NC[C@@H](O)CNS(=O)(=O)c1ccc(N2CC[C@@H](CO)n3ccnc32)c(-c2nn[nH]n2)c1S(N)(=O)=O [Example 39, N1-((R)-3-amino-2-hydroxypropyl)-4-((S)-5-(hydroxymethyl)-6,7-dihydroimidazo[1,2-a]pyrimidin-8(5H)-yl)-3-(2H-tetrazol-5-yl)benzene-1,2-disulfonamide]									9.05	8.19	8.79	7.84	0.29	1.56	0.78	2.34	1.17
NC[C@@H](O)CNS(=O)(=O)c1ccc(N2CC[C@H](CO)n3ccnc32)c(-c2nn[nH]n2)c1S(N)(=O)=O [Example 40, N1-((R)-3-amino-2-hydroxypropyl)-4-((R)-5-(hydroxymethyl)-6,7-dihydroimidazo[1,2-a]pyrimidin-8(5H)-yl)-3-(2H-tetrazol-5-yl)benzene-1,2-disulfonamide]									8.94	8.30	9.57	8.68	0.10	1.56	0.39	1.56	0.78
NC[C@@H](O)CNS(=O)(=O)c1ccc(-n2ccnc2)c(-c2nn[nH]n2)c1S(N)(=O)=O [Example 41, (R)—N1-(3-amino-2-hydroxypropyl)-4-(1H-imidazol-1-yl)-3-(2H-tetrazol-5-yl)benzene-1,2-disulfonamide]									9.18	8.53	8.98	9.02	0.78	1.56	0.78	1.56	0.78
